Test results from ChEMBL document CHEMBL5465560, “Selectivity Literature for EUbOPEN Chemogenomic Library” (2024).
Blank lines part the entries; values can stand above or below the compound they belong to.

Key:
[1] = biological target: Cyclin-Y/Cyclin-dependent kinase 16 (Homo sapiens) (UniProt Q00536+Q8ND76); assay: Selectivity interaction (LanthaScreen Eu Kinase Binding Assay) EUB0001632a CDK16; type: protein-complex assay; conditions: at 10 µM
[2] = biological target: Ephrin type-A receptor 7 (Homo sapiens) (UniProt Q15375); assay: Selectivity interaction (KinomeScan (DiscoverX)) EUB0000666a EPHA7; conditions: at 10 µM
Chain of Ephrin type-A receptor 7 (Homo sapiens) (Q15375 28-998 limits assumed): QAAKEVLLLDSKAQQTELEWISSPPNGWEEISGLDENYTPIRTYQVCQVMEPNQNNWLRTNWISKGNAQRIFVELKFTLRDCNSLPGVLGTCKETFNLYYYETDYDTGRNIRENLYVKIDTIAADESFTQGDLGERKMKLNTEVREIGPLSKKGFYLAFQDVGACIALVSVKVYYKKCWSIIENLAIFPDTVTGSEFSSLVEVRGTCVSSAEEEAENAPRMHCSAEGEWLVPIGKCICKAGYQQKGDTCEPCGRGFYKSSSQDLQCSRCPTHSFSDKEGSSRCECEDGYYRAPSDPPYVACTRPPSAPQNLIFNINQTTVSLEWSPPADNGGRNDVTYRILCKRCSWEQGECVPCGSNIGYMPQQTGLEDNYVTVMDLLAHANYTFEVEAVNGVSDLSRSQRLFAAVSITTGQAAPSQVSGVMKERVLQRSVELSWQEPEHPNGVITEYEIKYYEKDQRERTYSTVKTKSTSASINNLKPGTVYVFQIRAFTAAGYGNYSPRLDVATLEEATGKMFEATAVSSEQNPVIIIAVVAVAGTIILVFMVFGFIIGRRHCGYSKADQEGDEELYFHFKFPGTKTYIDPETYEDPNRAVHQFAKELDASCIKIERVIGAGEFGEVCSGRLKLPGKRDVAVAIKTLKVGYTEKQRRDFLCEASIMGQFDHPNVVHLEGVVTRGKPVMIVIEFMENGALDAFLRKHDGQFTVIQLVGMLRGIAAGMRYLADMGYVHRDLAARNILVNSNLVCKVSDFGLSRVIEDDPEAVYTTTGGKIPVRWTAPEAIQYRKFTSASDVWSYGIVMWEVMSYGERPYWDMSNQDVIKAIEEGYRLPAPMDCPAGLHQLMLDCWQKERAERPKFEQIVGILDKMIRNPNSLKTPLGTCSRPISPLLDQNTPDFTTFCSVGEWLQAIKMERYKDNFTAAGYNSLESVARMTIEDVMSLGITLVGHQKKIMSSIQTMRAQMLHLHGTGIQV

[3] = biological target: Fibroblast growth factor receptor 3 (Homo sapiens, UniProt P22607); assay: (§1) Selectivity interaction (SelectScreen profiling (Invitrogen)) EUB0000607a FGFR3; conditions: at 2 µM
[4] = tested on: Fibroblast growth factor receptor 3 (Homo sapiens), P22607 [K650E]; assay: as §1; conditions: at 2 µM
Chain of Fibroblast growth factor receptor 3 (Homo sapiens), P22607 [K650E] (P22607 whole entry K650E): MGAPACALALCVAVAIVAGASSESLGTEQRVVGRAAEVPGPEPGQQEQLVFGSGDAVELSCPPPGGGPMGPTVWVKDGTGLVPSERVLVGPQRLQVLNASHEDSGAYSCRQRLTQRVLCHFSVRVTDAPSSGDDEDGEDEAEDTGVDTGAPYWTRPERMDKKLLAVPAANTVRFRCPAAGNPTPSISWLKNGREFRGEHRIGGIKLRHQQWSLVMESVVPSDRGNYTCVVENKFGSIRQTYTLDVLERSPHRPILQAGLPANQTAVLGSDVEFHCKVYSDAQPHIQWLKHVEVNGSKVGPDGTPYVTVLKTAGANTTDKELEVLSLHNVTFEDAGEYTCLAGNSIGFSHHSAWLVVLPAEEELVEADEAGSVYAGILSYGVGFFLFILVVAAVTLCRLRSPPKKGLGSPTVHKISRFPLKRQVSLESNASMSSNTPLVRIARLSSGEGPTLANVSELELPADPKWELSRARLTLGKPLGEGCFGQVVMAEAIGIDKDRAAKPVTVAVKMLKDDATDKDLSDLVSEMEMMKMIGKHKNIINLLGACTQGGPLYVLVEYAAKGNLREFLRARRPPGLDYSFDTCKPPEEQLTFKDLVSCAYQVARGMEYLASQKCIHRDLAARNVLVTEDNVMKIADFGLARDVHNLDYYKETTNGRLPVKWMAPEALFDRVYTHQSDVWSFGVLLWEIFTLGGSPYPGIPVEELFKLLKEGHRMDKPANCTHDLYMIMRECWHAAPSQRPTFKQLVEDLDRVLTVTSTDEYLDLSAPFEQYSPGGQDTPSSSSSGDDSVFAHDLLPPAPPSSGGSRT

SRSF protein kinase 1 = SRSF protein kinase 1 (Homo sapiens, UniProt Q96SB4); assay: Selectivity interaction (KinomeScan (DiscoverX)) EUB0000607a SRPK1; conditions: at 10 µM
Chain of SRSF protein kinase 1 (Q96SB4 whole entry): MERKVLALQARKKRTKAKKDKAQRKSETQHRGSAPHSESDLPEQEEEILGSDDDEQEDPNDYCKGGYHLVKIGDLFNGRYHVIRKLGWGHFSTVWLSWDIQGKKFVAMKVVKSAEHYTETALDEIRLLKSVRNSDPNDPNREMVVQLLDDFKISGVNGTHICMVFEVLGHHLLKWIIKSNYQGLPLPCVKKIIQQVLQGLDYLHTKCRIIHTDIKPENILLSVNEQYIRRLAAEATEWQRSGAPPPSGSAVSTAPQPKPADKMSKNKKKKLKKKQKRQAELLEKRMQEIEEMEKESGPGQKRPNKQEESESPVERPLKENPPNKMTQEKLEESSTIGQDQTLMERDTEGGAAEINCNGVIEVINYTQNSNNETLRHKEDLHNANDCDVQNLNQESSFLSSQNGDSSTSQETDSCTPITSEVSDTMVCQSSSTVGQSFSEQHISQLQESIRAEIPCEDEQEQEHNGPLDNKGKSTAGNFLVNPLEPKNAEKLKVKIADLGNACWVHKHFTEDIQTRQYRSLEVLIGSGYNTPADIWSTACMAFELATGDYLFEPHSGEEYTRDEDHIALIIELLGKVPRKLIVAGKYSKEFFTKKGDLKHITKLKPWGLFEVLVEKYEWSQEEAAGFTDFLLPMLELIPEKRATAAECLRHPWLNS

[5] = biological target: Serine/threonine-protein kinase N1 (Homo sapiens, UniProt Q16512); assay: Selectivity interaction (KinomeScan (DiscoverX)) EUB0000607a PKN1; conditions: at 10 µM
Chain of Serine/threonine-protein kinase N1 (Q16512 2-942 limits assumed): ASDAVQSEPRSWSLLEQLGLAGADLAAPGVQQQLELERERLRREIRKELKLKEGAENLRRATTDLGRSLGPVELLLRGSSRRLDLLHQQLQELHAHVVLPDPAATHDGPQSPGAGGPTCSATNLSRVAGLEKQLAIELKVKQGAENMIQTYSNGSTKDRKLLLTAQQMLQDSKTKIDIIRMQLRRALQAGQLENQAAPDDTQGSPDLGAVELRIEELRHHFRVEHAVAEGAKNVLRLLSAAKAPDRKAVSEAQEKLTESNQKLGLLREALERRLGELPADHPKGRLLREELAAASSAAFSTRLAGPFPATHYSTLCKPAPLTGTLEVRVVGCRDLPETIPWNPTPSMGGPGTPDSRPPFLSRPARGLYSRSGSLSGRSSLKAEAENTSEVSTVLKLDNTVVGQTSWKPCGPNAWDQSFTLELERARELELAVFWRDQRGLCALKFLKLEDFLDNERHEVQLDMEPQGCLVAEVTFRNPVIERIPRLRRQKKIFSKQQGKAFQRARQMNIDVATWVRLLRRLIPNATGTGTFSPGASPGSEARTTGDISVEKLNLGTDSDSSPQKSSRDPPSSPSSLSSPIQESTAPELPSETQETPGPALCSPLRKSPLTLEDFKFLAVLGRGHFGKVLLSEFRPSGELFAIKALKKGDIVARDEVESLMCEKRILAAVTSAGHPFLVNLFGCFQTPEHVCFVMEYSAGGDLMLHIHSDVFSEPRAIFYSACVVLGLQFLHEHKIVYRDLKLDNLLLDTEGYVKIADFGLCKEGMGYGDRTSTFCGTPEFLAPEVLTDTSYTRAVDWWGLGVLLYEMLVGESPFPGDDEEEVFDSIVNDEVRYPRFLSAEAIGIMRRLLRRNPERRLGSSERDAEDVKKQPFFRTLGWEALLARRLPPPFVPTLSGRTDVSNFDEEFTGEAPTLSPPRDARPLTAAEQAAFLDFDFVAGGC

[6] = biological target: T1, Mitogen-activated protein kinase kinase kinase 2 (Homo sapiens) (UniProt Q9Y2U5); assay: Selectivity interaction (ActivX KiNativ screen (kinase selectivity in THP-1 cell lysates)) EUB0000639a MAP3K2; type: subcellular; conditions: lysate, at 1 µM
T1 sequence (whole entry): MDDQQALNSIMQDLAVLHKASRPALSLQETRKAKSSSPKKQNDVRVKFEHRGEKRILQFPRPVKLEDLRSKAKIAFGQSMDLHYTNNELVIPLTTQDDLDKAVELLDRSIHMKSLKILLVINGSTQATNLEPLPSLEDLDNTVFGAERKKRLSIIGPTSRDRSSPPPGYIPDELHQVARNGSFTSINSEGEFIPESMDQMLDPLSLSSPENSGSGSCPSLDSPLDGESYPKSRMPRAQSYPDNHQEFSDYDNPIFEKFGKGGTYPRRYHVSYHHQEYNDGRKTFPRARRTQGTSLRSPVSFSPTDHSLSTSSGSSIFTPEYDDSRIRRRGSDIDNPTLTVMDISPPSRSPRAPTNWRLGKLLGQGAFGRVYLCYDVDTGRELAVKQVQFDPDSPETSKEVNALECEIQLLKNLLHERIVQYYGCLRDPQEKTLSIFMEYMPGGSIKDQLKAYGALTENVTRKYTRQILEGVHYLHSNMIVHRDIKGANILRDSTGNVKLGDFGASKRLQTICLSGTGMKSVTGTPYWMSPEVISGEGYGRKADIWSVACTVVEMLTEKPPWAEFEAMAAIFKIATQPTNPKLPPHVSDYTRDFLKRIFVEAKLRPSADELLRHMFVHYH

[7] = biological target: T2, Serine/threonine-protein kinase TAO3 (Homo sapiens) (UniProt Q9H2K8); assay: Selectivity interaction (ProQinase) EUB0000171b TAOK3
T2 sequence (whole entry): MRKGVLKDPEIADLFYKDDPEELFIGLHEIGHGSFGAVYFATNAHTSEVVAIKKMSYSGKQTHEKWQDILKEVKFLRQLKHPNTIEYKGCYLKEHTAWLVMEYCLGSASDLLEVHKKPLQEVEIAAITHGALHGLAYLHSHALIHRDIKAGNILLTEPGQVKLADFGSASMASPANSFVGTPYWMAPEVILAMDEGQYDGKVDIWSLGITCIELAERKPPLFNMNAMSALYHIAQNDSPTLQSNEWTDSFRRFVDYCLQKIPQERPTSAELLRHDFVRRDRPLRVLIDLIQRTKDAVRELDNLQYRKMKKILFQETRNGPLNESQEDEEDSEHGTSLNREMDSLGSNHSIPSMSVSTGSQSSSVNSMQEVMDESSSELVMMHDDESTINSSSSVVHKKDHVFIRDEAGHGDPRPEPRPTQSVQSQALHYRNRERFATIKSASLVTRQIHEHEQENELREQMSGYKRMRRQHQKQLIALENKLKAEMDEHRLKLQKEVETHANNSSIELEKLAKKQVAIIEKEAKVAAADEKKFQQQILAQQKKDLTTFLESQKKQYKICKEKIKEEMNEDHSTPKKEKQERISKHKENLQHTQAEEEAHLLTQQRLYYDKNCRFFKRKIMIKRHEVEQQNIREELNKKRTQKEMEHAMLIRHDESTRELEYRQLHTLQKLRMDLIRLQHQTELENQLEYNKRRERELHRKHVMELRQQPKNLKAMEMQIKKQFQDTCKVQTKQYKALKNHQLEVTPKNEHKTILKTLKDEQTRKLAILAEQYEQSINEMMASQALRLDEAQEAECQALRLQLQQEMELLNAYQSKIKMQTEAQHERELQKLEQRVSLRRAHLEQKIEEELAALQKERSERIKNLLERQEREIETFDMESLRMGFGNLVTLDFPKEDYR

[8] = biological target: T3, Cyclin-dependent kinase-like 2 (Homo sapiens) (UniProt Q92772); assay: Selectivity interaction (KinomeScan (DiscoverX)) EUB0000655a CDKL2; conditions: at 10 µM
T3 sequence (whole entry): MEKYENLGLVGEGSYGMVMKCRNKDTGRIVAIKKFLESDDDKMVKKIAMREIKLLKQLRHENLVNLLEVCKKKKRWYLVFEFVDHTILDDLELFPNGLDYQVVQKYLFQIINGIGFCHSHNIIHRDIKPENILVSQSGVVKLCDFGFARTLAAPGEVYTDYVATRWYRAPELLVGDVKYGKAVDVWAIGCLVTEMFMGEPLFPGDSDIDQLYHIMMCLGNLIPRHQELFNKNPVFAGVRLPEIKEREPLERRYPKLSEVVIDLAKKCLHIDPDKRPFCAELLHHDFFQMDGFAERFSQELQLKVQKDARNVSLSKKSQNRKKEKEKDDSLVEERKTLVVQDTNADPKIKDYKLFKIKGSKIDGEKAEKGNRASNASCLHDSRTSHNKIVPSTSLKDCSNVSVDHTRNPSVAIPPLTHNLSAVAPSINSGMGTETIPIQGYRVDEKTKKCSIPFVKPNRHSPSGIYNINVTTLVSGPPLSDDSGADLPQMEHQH

[9] = biological target: Mitogen-activated protein kinase kinase kinase kinase 1 (Homo sapiens) (UniProt Q92918); assay: Selectivity interaction (Kinase panel (KiNativ target engagement assay in Jurkat cells)) EUB0001635a MAP4K1; type: cell-based; conditions: Selectivity number of off-targets 0.0, Selectivity number of targets 233.0, Source Knowledge https://www.sciencedirect.com/science/article/pii/S2451945619300674?via%3Dihub, at 1 µM
Chain of Mitogen-activated protein kinase kinase kinase kinase 1 (Homo sapiens) (Q92918 whole entry, looked up): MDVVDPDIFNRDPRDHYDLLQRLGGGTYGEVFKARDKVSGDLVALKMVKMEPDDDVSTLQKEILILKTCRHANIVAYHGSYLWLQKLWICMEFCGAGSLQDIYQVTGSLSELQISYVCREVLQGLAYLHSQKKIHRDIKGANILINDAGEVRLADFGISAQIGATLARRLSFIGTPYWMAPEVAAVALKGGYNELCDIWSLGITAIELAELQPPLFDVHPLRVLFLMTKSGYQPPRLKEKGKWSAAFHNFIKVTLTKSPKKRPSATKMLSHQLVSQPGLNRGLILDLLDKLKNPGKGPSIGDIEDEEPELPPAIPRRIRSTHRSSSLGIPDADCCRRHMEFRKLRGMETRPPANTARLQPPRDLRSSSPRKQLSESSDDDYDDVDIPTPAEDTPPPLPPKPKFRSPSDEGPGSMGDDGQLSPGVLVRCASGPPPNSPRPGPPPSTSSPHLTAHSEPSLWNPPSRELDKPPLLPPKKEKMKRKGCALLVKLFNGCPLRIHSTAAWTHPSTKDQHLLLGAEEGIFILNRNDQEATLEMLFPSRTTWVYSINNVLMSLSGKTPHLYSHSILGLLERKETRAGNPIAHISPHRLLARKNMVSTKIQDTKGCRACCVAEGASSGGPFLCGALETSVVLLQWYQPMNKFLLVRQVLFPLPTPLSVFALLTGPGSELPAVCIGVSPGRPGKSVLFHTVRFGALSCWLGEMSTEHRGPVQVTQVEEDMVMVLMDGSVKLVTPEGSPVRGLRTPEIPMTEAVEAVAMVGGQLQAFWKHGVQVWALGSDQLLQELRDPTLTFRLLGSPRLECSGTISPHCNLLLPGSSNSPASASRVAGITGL

[10] = biological target: T1, Mitogen-activated protein kinase kinase kinase 2 (Homo sapiens); assay: Selectivity interaction (Kinase panel (KiNativ target engagement assay in Jurkat cells)) EUB0001635a MAP3K2; type: cell-based; conditions: at 1 µM
[11] = biological target: Calcium/calmodulin-dependent protein kinase type 1B (Homo sapiens) (UniProt Q6P2M8); assay: Selectivity interaction (KinomeScan (DiscoverX)) EUB0000229b PNCK; conditions: at 10 µM
[12] = biological target: Calcium/calmodulin-dependent protein kinase type II subunit gamma (Homo sapiens) (UniProt Q13555); assay: Selectivity interaction (ActivX KiNativ screen (ex vivo kinase selectivity in human PBMCs)) EUB0001619a CAMK2G; type: cell-based; conditions: PBMC, at 1 µM
Chain of Calcium/calmodulin-dependent protein kinase type II subunit gamma (Homo sapiens) (Q13555 whole entry): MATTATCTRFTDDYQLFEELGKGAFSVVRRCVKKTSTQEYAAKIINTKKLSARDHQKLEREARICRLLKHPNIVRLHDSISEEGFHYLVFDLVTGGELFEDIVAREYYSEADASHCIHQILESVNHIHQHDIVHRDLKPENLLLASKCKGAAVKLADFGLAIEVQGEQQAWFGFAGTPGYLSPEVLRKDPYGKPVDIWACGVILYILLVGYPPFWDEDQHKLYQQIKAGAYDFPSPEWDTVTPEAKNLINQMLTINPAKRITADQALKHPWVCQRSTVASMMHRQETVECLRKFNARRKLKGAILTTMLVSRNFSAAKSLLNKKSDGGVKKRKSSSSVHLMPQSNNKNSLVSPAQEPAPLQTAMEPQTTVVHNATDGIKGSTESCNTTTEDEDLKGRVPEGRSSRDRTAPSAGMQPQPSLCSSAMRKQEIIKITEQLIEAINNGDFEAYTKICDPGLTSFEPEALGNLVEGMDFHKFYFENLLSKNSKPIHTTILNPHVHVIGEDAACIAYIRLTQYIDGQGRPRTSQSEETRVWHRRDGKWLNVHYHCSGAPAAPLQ

% of inhibition [1]: 15%
Compound: Cn1cc(-n2cnc3c(NCc4nc5cc(Cl)c(Cl)cc5[nH]4)nc(N4CCOCC4)nc32)cn1

Compound: O=C(NOC[C@H](O)CO)c1ccc(F)c(F)c1Nc1ccc(I)cc1F
% of control [2]: 94%

Compound: CNC(=O)Nc1ccc(-c2nc(N3CC4CCC(C3)O4)c3cnn(C4CCC5(CC4)OCCO5)c3n2)cc1
% of inhibition [3]: 5% | % of inhibition [4]: 6% | % of control (SRSF protein kinase 1): 100% | % of control [5]: 100%

% of inhibition [6]: -7.6%
Compound: CC[C@@H]1[C@H](F)C(=O)N[C@@H]1COc1nccc2cc(C(N)=O)c(OC)cc12 [ZIMLOVISERTIB]

% of control ([7]; at 1 µM): 95% | % of control ([7]; at 5 µM): 72%
Compound: C=CC(=O)Nc1cccc(C(=O)Nc2ccc(Nc3cc(-c4[nH]c(SC)nc4C)ccn3)cc2)c1

Compound: CN(C)CCOc1ccc(-c2nc(-c3ccncc3)c(-c3ccc4c(c3)CC/C4=N\O)[nH]2)cc1
% of control [8]: 100%

Compound: C=CC(=O)Nc1ccc(C(=O)Nc2[nH]nc3c2CN(C(=O)N[C@H](CN(C)C)c2ccccc2)C3(C)C)cc1
% of engagement [9]: 4.1% | % of engagement ([10]; Selectivity number of off-targets 0.0, Selectivity number of targets 233.0, Source Knowledge https://www.sciencedirect.com/science/article/pii/S2451945619300674?via%3Dihub): -1.5% | % of engagement [10]: -1.9%

Compound: COc1cc(N(C)c2ccnc3ccc(C(F)(F)F)cc23)cc(OC)c1OC
% binding [11]: 98%

Compound: N#Cc1cccc(-c2c[nH]c3ncnc(N4CCOCC4)c23)c1
% of inhibition [12]: 10%
